# From ChEMBL document CHEMBL4680076, “Hydraphiles enhance antimicrobial potency against Escherichia coli, Pseudomonas aeruginosa, and Bacillus subtilis” (2016)
# Activity calls are given as the source filed them. The calls are words filed in the database; no cut-off is given here.
# Assays:
# Bacillus subtilis [1] = test: Synergistic antimicrobial activity against Bacillus subtilis assessed as fold enhancement in tetracyclin potency at 0.12 uM incubated for overnight by CLSI method; type: functional
# Escherichia coli [2] = test: Synergistic antimicrobial activity against Escherichia coli K-12 assessed as enhancement in rifampicin potency at 2.5 uM; type: functional, organism-based
# Escherichia coli [3] = test: Synergistic antimicrobial activity against Escherichia coli K-12 assessed as fold enhancement in tetracycline potency at 1.25 uM incubated for overnight by CLSI method; type: functional
# Pseudomonas aeruginosa [4] = test: Synergistic antimicrobial activity against Pseudomonas aeruginosa assessed as fold enhancement in tetracycline potency at 1 uM incubated for overnight by CLSI method; type: functional
# Escherichia coli [5] = test: Antimicrobial activity against Escherichia coli DH5alpha assessed as inhibition of bacterial growth incubated for overnight by CLSI method; type: functional; settings: DH5[alpha]
# Escherichia coli [6] = test: Synergistic antimicrobial activity against Escherichia coli K-12 assessed as fold enhancement in kanamycin potency at 1.25 uM incubated for overnight by CLSI method; type: functional
# Bacillus subtilis [7] = test: Synergistic antimicrobial activity against Bacillus subtilis assessed as fold enhancement in erythromycin potency at 0.12 uM incubated for overnight by CLSI method; type: functional
# Escherichia coli [8] = test: Synergistic antimicrobial activity against Escherichia coli K-12 assessed as fold enhancement in tetracycline potency at 0.6 uM incubated for overnight by CLSI method; type: functional
# Pseudomonas aeruginosa [9] = test: Synergistic antimicrobial activity against Pseudomonas aeruginosa assessed as fold enhancement in rifampicin potency at 1 uM incubated for overnight by CLSI method; type: functional
# Pseudomonas aeruginosa [10] = test: Synergistic antimicrobial activity against Pseudomonas aeruginosa assessed as fold enhancement in erythromycin potency at 0.5 uM incubated for overnight by CLSI method; type: functional
# Escherichia coli [11] = test: Synergistic antimicrobial activity against Escherichia coli K-12 assessed as fold enhancement in erythromycin potency at 0.6 uM incubated for overnight by CLSI method; type: functional
# Escherichia coli [12] = test: Synergistic antimicrobial activity against Escherichia coli K-12 assessed as fold enhancement in erythromycin potency at 1.25 uM incubated for overnight by CLSI method; type: functional
# Escherichia coli [13] = test: Synergistic antimicrobial activity against Escherichia coli K-12 assessed as fold enhancement in kanamycin potency at 0.6 uM incubated for overnight by CLSI method; type: functional, organism-based
# Pseudomonas aeruginosa [14] = test: Synergistic antimicrobial activity against Pseudomonas aeruginosa assessed as fold enhancement in erythromycin potency at 1 uM incubated for overnight by CLSI method; type: functional
# Escherichia coli [15] = test: Antimicrobial activity against Escherichia coli K-12 assessed as inhibition of bacterial growth incubated for overnight by CLSI method; type: functional
# Escherichia coli [16] = test: Synergistic antimicrobial activity against Escherichia coli K-12 assessed as fold enhancement in rifampicin potency at 0.6 uM incubated for overnight by CLSI method; type: functional
# Escherichia coli [17] = test: Growth inhibition of Escherichia coli DH5alpha at half MIC measured every 15 mins for 12 hrs; type: functional, organism-based; settings: DH5[alpha]
# Escherichia coli [18] = test: Growth inhibition of Escherichia coli DH5alpha at half MIC measured every 15 mins for 12 hrs in presence of 25 uM erythromycin; type: functional, organism-based; settings: DH5[alpha]
# Pseudomonas aeruginosa [19] = test: Antimicrobial activity against Pseudomonas aeruginosa assessed as inhibition of bacterial growth incubated for overnight by CLSI method; type: functional
# Pseudomonas aeruginosa [20] = test: Synergistic antimicrobial activity against Pseudomonas aeruginosa assessed as fold enhancement in tetracycline potency at 0.5 uM incubated for overnight by CLSI method; type: functional
# Pseudomonas aeruginosa [21] = test: Synergistic antimicrobial activity against Pseudomonas aeruginosa assessed as fold enhancement in rifampicin potency at 0.5 uM incubated for overnight by CLSI method; type: functional
# Escherichia coli [22] = test: Synergistic antimicrobial activity against Escherichia coli K-12 assessed as fold enhancement in rifampicin potency at 1.25 uM incubated for overnight by CLSI method; type: functional
# Bacillus subtilis [23] = test: Antimicrobial activity against Bacillus subtilis assessed as inhibition of bacterial growth incubated for overnight by CLSI method; type: functional
# Escherichia coli [24] = test: Growth inhibition of Escherichia coli DH5alpha at 25 uM measured every 15 mins for 12 hrs; type: functional, organism-based; settings: DH5[alpha]
# Escherichia coli [25] = test: Growth inhibition of Escherichia coli DH5alpha at 50 uM measured every 15 mins for 12 hrs; type: functional, organism-based; settings: DH5[alpha]
# Escherichia coli [26] = test: Synergistic antimicrobial activity against Escherichia coli DH5alpha assessed as fold enhancement in kanamycin potency at 150 uM incubated for overnight by CLSI method; type: functional, DH5[alpha]
# Escherichia coli [27] = test: Synergistic antimicrobial activity against Escherichia coli DH5alpha assessed as fold enhancement in tetracycline potency at 75 uM incubated for overnight by CLSI method; type: functional, DH5[alpha]
# [28] = Synergistic antimicrobial activity against Escherichia coli DH5alpha assessed as fold enhancement in erythromycin potency at 75 uM incubated for overnight by CLSI method; type: functional, K-12
# Escherichia coli [29] = test: Synergistic antimicrobial activity against Escherichia coli DH5alpha assessed as fold enhancement in rifampicin potency at 150 uM incubated for overnight by CLSI method; type: functional, DH5[alpha]
# Escherichia coli [30] = test: Synergistic antimicrobial activity against Escherichia coli DH5alpha assessed as fold enhancement in erythromycin potency at 150 uM incubated for overnight by CLSI method; type: functional, DH5[alpha]
# Escherichia coli [31] = test: Synergistic antimicrobial activity against Escherichia coli DH5alpha assessed as fold enhancement in tetracycline potency at 150 uM incubated for overnight by CLSI method; type: functional, DH5[alpha]
# Escherichia coli [32] = test: Synergistic antimicrobial activity against Escherichia coli DH5alpha assessed as fold enhancement in rifampicin potency at 75 uM incubated for overnight by CLSI method; type: functional, DH5[alpha]
# Escherichia coli [33] = test: Synergistic antimicrobial activity against Escherichia coli DH5alpha assessed as fold enhancement in kanamycin potency at 75 uM incubated for overnight by CLSI method; type: functional, DH5[alpha]
smiles,measurement,setting,value
c1ccc(CN2CCOCCOCCN(CCCCCCCCCCCCCCN3CCOCCOCCN(CCCCCCCCCCCCCCN4CCOCCOCCN(Cc5ccccc5)CCOCCOCC4)CCOCCOCC3)CCOCCOCC2)cc1,fold change (FC),Bacillus subtilis [1],2
same,Activity,Escherichia coli [2],Active
same,fold change (FC),Escherichia coli [3],5
same,fold change (FC),Pseudomonas aeruginosa [4],4
same,MIC,Escherichia coli [5],2 µM
same,fold change (FC),Escherichia coli [6],2
same,fold change (FC),Bacillus subtilis [7],2
same,fold change (FC),Escherichia coli [8],2
same,fold change (FC),Pseudomonas aeruginosa [9],11
same,fold change (FC),Pseudomonas aeruginosa [10],4
same,fold change (FC),Escherichia coli [11],2
same,fold change (FC),Escherichia coli [12],9
same,fold change (FC),Escherichia coli [13],inactive
same,fold change (FC),Pseudomonas aeruginosa [14],8
same,MIC,Escherichia coli [15],2.5 µM
same,fold change (FC),Escherichia coli [16],4
same,growth inhibition (GI),Escherichia coli [17],inactive
same,growth inhibition (GI),Escherichia coli [18],Active
same,MIC,Pseudomonas aeruginosa [19],2 µM
same,fold change (FC),Pseudomonas aeruginosa [20],2
same,fold change (FC),Pseudomonas aeruginosa [21],5
same,fold change (FC),Escherichia coli [22],30
same,MIC,Bacillus subtilis [23],0.5 µM
CC[C@H]1OC(=O)[C@H](C)[C@@H](O[C@H]2C[C@@](C)(OC)[C@@H](O)[C@H](C)O2)[C@H](C)[C@@H](O[C@@H]2O[C@H](C)C[C@H](N(C)C)[C@H]2O)[C@](C)(O)C[C@@H](C)C(=O)[C@H](C)[C@@H](O)[C@]1(C)O [ERYTHROMYCIN],MIC,Escherichia coli [5],200 µM
same,growth inhibition (GI),Escherichia coli [24],inactive
same,MIC,Escherichia coli [15],700 µM
same,MIC,Pseudomonas aeruginosa [19],200 µM
same,growth inhibition (GI),Escherichia coli [25],Active
same,MIC,Bacillus subtilis [23],0.3 µM
CO[C@H]1/C=C/O[C@@]2(C)Oc3c(C)c(O)c4c(O)c(c(/C=N/N5CCN(C)CC5)c(O)c4c3C2=O)NC(=O)/C(C)=C\C=C\[C@H](C)[C@H](O)[C@@H](C)[C@@H](O)[C@@H](C)[C@H](OC(C)=O)[C@@H]1C [RIFAMPIN],MIC,Escherichia coli [5],55 µM
same,MIC,Escherichia coli [15],16 µM
same,MIC,Pseudomonas aeruginosa [19],25 µM
CN(C)[C@@H]1C(O)=C(C(N)=O)C(=O)[C@@]2(O)C(O)=C3C(=O)c4c(O)cccc4[C@@](C)(O)[C@H]3C[C@@H]12 [TETRACYCLINE],MIC,Escherichia coli [5],5 µM
same,MIC,Escherichia coli [15],5 µM
same,MIC,Pseudomonas aeruginosa [19],12 µM
same,MIC,Bacillus subtilis [23],3 µM
c1ccc(CN2CCOCCOCCN(CCCCCCCCCCCCCCCCN3CCOCCOCCN(CCCCCCCCCCCCCCCCN4CCOCCOCCN(Cc5ccccc5)CCOCCOCC4)CCOCCOCC3)CCOCCOCC2)cc1,MIC,Escherichia coli [5],4 µM
same,fold change (FC),Pseudomonas aeruginosa [10],4
same,fold change (FC),Pseudomonas aeruginosa [14],8
same,MIC,Pseudomonas aeruginosa [19],2 µM
c1ccc(CN2CCOCCOCCN(CCCCCCCCN3CCOCCOCCN(CCCCCCCCN4CCOCCOCCN(Cc5ccccc5)CCOCCOCC4)CCOCCOCC3)CCOCCOCC2)cc1,Activity,Escherichia coli [2],inactive
same,MIC,Escherichia coli [5],300 µM
same,fold change (FC),Escherichia coli [26],3
same,fold change (FC),Escherichia coli [27],2
same,fold change (FC),[28],8
same,fold change (FC),Escherichia coli [29],18
same,fold change (FC),Escherichia coli [30],13
same,fold change (FC),Escherichia coli [31],5
same,MIC,Escherichia coli [15],200 µM
same,fold change (FC),Escherichia coli [32],18
same,fold change (FC),Escherichia coli [33],2
